# Peptide text beside a SMILES is read from it.
# System: male runners
# Experiment: Dynavision D2 MODE B reaction test with cognitive load (hits and time per hit in 60 s)
# Assay type: in vivo, human
# Design: Mode B Avg Δ, Mean Difference: unit not given here
# Details: for Mode B Avg Δ (time per hit), group mean / Mode B Hits Δ, group mean: Post-Pre
# Description: The testing protocol is depicted in FIG. 1. Data collection occurred on four separate occasions. Each session required participants to perform a 60-min run at 75% of their previously measured VO2max. Following this run, all participants performed a run at 90% of their VO2max until volitional exhaustion. All participants performed their first trial (DHY) without any rehydration. During this session the total weight lost during the trial was determined. The fluid loss that occurred during this session was then used to determine the participant's swear rate (L·hr^−1). To continue in the study, participant's sweat rate was or exceeded 1.3 L·hr^−1. During the next three trails participants were provided 250 ml of fluid every 15 minutes in equal amounts. During one of the trials participants consumed only a flavored sports drink (ELECT only), while during the other trials participants consumed the alanine-glutamine supplement (Sustamine™) mixed in the same flavored sports drink at either a low (LD: 300 mg per 500 ml) or high (HD: 1 g per 500 ml) dose. Measurement of upper body reaction time was performed on the Dynavision D2 Visuomotor Training Device (D2; Dynavision International LLC, West Chester, Ohio). The D2 is a light training reaction device, developed to train sensory motor integration through the visual system. It consists of a board (4 foot×4 foot) that can be raised or lowered relative to the height of the operator. It contains 64 target buttons arranged into five concentric circles surrounding a center screen that can be illuminated to serve as a stimulus for the participant. Participants were required to assume a comfortable athletic stance and stand at a distance from the board where they could easily reach all of the lights. The board height was adjusted so the LCD screen was located just below eye level. A total of three different reaction tests were conducted. Participants were instructed to fixate their gaze on the LCD screen in the middle of the board and to keep their focus there for the entirety of the experiment. The third assessment (MODE B) was similar to the previous measure in that participants were required to react to a visual stimulus as it changed positions on the board. However, the difference between the two assessments was that the stimulus remained for 1 s before it changed to another random location, and each participant was required to verbally recite a five digit number that was presented on the center screen of the D2 during each assessment. The appearance of the digits placed an additional demand on the information processing resources of the participant. The participant was instructed to successfully identify and strike each stimulus before it changed position and score as many strikes as possible within 60 s. The number of successful hits was recorded for each participant. Additionally, to make inferences on true effects of the different trials on reaction performance, an analysis based on the magnitude of differences, calculated from 90% confidence intervals, as previously described by Batterham and Hopkins (2005), was used in this study. Differences in Post-Pre performance (Δresponse) between trials were analyzed via a published spreadsheet (Hopkins 2007), with the smallest non-trivial change set at 20% of the grand standard deviation (Batterham and Hopkins 2005). All data are expressed as a mean effect±SD, with percent chances of a beneficial, trivial or negative outcome. Qualitative inferences, based on quantitative chances were assessed as: <1% almost certainly not, 1-5% very unlikely, 5-25% unlikely, 25-75% possibly, 75-95% likely, 95-99% very likely and >99% almost certainly (Hopkins 2002).
smiles,measurement,setting,value
C[C@H](N)C(=O)N[C@@H](CCC(N)=O)C(=O)O [L-Alanyl-L-Glutamine] (H-Ala-Gln-OH),"Mode B Avg Δ, Interpretation",Dehydration vs High Dose,likely negative
same,"Mode B Avg Δ, Mean Difference",Dehydration vs High Dose,−0.023
same,"Mode B Avg Δ, Percent Negative",Dehydration vs High Dose,82.12%
same,"Mode B Avg Δ, Percent Positive",Dehydration vs High Dose,1.37%
same,"Mode B Avg Δ, Percent Trivial",Dehydration vs High Dose,16.50%
same,"Mode B Hits Δ, Interpretation",Dehydration vs High Dose,Unclear
same,"Mode B Hits Δ, Mean Difference",Dehydration vs High Dose,0.67
same,"Mode B Hits Δ, Percent Negative",Dehydration vs High Dose,20.22%
same,"Mode B Hits Δ, Percent Positive",Dehydration vs High Dose,31.57%
same,"Mode B Hits Δ, Percent Trivial",Dehydration vs High Dose,48.20%
same,"Mode B Avg Δ, Interpretation",Dehydration vs Low Dose,Unclear
same,"Mode B Avg Δ, Mean Difference",Dehydration vs Low Dose,−0.0075
same,"Mode B Avg Δ, Percent Negative",Dehydration vs Low Dose,41.89%
same,"Mode B Avg Δ, Percent Positive",Dehydration vs Low Dose,8.13%
same,"Mode B Avg Δ, Percent Trivial",Dehydration vs Low Dose,49.99%
same,"Mode B Hits Δ, Interpretation",Dehydration vs Low Dose,Unclear
same,"Mode B Hits Δ, Mean Difference",Dehydration vs Low Dose,−1.1
same,"Mode B Hits Δ, Percent Negative",Dehydration vs Low Dose,31.06%
same,"Mode B Hits Δ, Percent Positive",Dehydration vs Low Dose,10.62%
same,"Mode B Hits Δ, Percent Trivial",Dehydration vs Low Dose,58.32%
same,"Mode B Avg Δ, Interpretation",Gatorade vs High Dose,No
same,"Mode B Hits Δ, Interpretation",Gatorade vs High Dose,Unclear
same,"Mode B Hits Δ, Mean Difference",Gatorade vs High Dose,−0.5
same,"Mode B Hits Δ, Percent Negative",Gatorade vs High Dose,33.43%
same,"Mode B Hits Δ, Percent Positive",Gatorade vs High Dose,25.96%
same,"Mode B Hits Δ, Percent Trivial",Gatorade vs High Dose,40.61%
same,"Mode B Avg Δ (time per hit), group mean",High Dose (1 g per 500 ml),0
same,"Mode B Hits Δ, group mean",High Dose (1 g per 500 ml),2.75
same,"Mode B Avg Δ (time per hit), group mean",Low Dose (300 mg per 500 ml),−0.0158
same,"Mode B Hits Δ, group mean",Low Dose (300 mg per 500 ml),4.5
same,"Mode B Avg Δ, Interpretation",Low Dose vs Gatorade,possibly negative
same,"Mode B Avg Δ, Mean Difference",Low Dose vs Gatorade,−0.016
same,"Mode B Avg Δ, Percent Negative",Low Dose vs Gatorade,70.44%
same,"Mode B Avg Δ, Percent Positive",Low Dose vs Gatorade,1.16%
same,"Mode B Avg Δ, Percent Trivial",Low Dose vs Gatorade,28.39%
same,"Mode B Hits Δ, Interpretation",Low Dose vs Gatorade,Unclear
same,"Mode B Hits Δ, Mean Difference",Low Dose vs Gatorade,2.3
same,"Mode B Hits Δ, Percent Negative",Low Dose vs Gatorade,25.04%
same,"Mode B Hits Δ, Percent Positive",Low Dose vs Gatorade,48.77%
same,"Mode B Hits Δ, Percent Trivial",Low Dose vs Gatorade,26.19%
same,"Mode B Avg Δ, Interpretation",Low Dose vs High Dose,Unclear
same,"Mode B Avg Δ, Mean Difference",Low Dose vs High Dose,−0.016
same,"Mode B Avg Δ, Percent Negative",Low Dose vs High Dose,64.75%
same,"Mode B Avg Δ, Percent Positive",Low Dose vs High Dose,5.03%
same,"Mode B Avg Δ, Percent Trivial",Low Dose vs High Dose,30.22%
same,"Mode B Hits Δ, Interpretation",Low Dose vs High Dose,Unclear
same,"Mode B Hits Δ, Mean Difference",Low Dose vs High Dose,1.8
same,"Mode B Hits Δ, Percent Negative",Low Dose vs High Dose,7.59%
same,"Mode B Hits Δ, Percent Positive",Low Dose vs High Dose,40.19%
same,"Mode B Hits Δ, Percent Trivial",Low Dose vs High Dose,52.22%
same,successful hits in MODE B and time per successful hits,between trials,No differences were noted between trials

# Reference: US10369185B2, “Methods and compositions for enhancement of ability to concentrate” (KYOWA HAKKO BIO CO., LTD., priority 2014, dated 2019)
